The source made the active and inactive calls. No cut-off for these calls is given here.

The subject of data set [1] is HCT-116. The data set is described as follows: Induction of apoptosis in Bax deficient human HCT116 cells assessed as late apoptotic cells at 15 uM after 24 hrs by Annexin V-FITC/propidium iodide staining based flow cytometry (reference value: 1.5 to 1.56%). Type of data set: functional.
The test system of data set [2] is HCT-116. The data set is described as follows: Induction of apoptosis in human HCT116 cells assessed as cytochrome C release from mitochondria to cytoplasm at 5 uM after 12 hrs by immunofluorescence assay. In kind it is functional.
The test system of data set [3] is HCT-116. Briefly: Induction of apoptosis in human HCT116 cells assessed as caspase activation at 5 uM after 36 hrs by CaspACEFITC-VAD-FMK staining based flow cytometry (reference value: 7.72%). Type of data set: functional.
Data set [4] relates to HCT-116. Briefly: Induction of apoptosis in human HCT116 cells assessed as late apoptotic cells at 5 uM after 24 hrs by Annexin V-FITC/propidium iodide staining based flow cytometry in presence of DTT (reference value: 3.73%). Type of data set: functional. For orientation: Flow cytometry measures light scatter and fluorescence of single cells or particles in a stream.
Data set [5] has as its system HCT-116. Briefly: Induction of apoptosis in human HCT116 cells assessed as necrotic cells at 5 uM after 24 hrs by Annexin V-FITC/propidium iodide staining based flow cytometry in presence of DTT (reference value: 0.44%). Type of data set: functional.
Data set [6] relates to HCT-116. The data set is described as follows: Induction of apoptosis in human HCT116 cells assessed as increase in BimL expression at 5 uM after 6 to 24 hrs by Western blot analysis. Type of data set: functional, cell-based. In general terms: In western blotting, separated proteins are transferred to a membrane and probed.
Data set [7] has as its system HCT-116. Briefly: Induction of apoptosis in Bax deficient human HCT116 cells assessed as early apoptotic cells at 15 uM after 24 hrs by Annexin V-FITC/propidium iodide staining based flow cytometry in presence of DTT (reference value: 0.85%). Type of data set: functional.
Data set [8] relates to HCT-116. The data set is described as follows: Induction of apoptosis in Bax deficient human HCT116 cells assessed as late apoptotic cells at 15 uM after 24 hrs by Annexin V-FITC/propidium iodide staining based flow cytometry in presence of NAC (reference value: 1.56%). In kind it is functional.
The test system of data set [9] is HCT-116. Briefly: Induction of apoptosis in ATG5 scramble human HCT116 cells assessed as early apoptotic cells at 5 uM after 24 hrs by Annexin V-FITC/propidium iodide staining based flow cytometry (reference value: 1.99%). Type of data set: functional.
Data set [10] deals with HCT-116. The data set is described as follows: Induction of apoptosis in human HCT116 cells assessed as ATG5 cleavage by Western blot analysis in presence of chloroquine. Type of data set: functional, cell-based.
Data set [11] is described as follows: Antitumor activity against human HCT116 cells xenografted in immune deficient nude BALB/c mouse assessed as tumor growth inhibition at 5 mg/kg, ip administered every other day for 2 weeks measured after 2 weeks post last dose relative to control. Type of data set: functional. The following applies: HCT-116, ip, 336 h, read-out: TGI.
Data set [12] can be described thus: Antitumor activity against human HCT116 cells xenografted in immune deficient nude BALB/c mouse assessed as tumor growth inhibition at 10 mg/kg, ip administered every other day for 2 weeks measured after 2 weeks post last dose relative to control. Type of data set: functional. To be noted: HCT-116, ip, 336 h, read-out: TGI.
Data set [13] concerns Mus musculus. Briefly: Toxicity in immune deficient nude BALB/c mouse xenografted with human HCT116 cells assessed as changes in body weight at 5 and 10 mg/kg, ip administered every other day for 2 weeks measured during compound dosing. The following applies: in vivo, 336 h. Type of data set: organism-based, HCT-116.
Data set [14] deals with Mus musculus. Briefly: Toxicity in immune deficient nude BALB/c mouse xenografted with human HCT116 cells assessed as discomfort behavioral changes at 5 and 10 mg/kg, ip administered every other day for 2 weeks measured during compound dosing. Type of data set: organism-based, HCT-116. The following applies: in vivo, 336 h.
The test system of data set [15] is Mus musculus. The data set is described as follows: Hepatotoxicity in immune deficient nude BALB/c mouse xenografted with Bax deficient human HCT116 cells assessed as changes in total protein level at 5 and 10 mg/kg, ip administered every other day for 2 weeks measured during compound dosing. The following applies: in vivo, 336 h. In kind it is toxicity, organism-based, HCT-116.

Take `CO[C@@H]1C(C=O)=CC[C@@H]2C3=C(C(C)C)CC[C@]3(C)CC[C@@]2(C)[C@H]1O`: the Activity stood at 29.02% with HCT-116 [1]; 93.96% in the data set with HCT-116 [3]; 13.34% in the data set with HCT-116 [4]; 0.33% in the data set with HCT-116 [5]; 2.67% in the data set with HCT-116 [7]; 2.07% in the data set with HCT-116 [8]. Further, the Activity in the data set on HCT-116 [9] was 15.2%; in the data set with Mus musculus [13], “Non-toxic”; in the data set with Mus musculus [14], “Non-toxic”; in the data set on Mus musculus [15], “Non-toxic”. Also, the outcome in the data set with HCT-116 [2] and in the data set with HCT-116 [6] was Active. The outcome in the data set on HCT-116 [10] was inactive. The inhibition in vivo at 5 mg/kg in data set [11] turned out to be 26%. Further, in [12], the inhibition in vivo at 10 mg/kg stood at 62.2%.

For the origin of these results see ChEMBL document CHEMBL3769391, “Identification of a new cyathane diterpene that induces mitochondrial and autophagy-dependent apoptosis and shows a potent in vivo anti-colorectal cancer activity” (Eur J Med Chem, 2016).
